Results as given in PubChem BioAssay (NCI).
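Tested at 5 concentrations; 48 h exposure; 96-well plates; endpoints linearly interpolated, else capped at highest concentration. GI50 = concentration required for 50% inhibition of growth. At the TGI there is no net growth.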

Legend:
Test in all cases: NCI tumour cell line growth inhibition, 48 h
CCRF-CEM leukemia = test system: CCRF-CEM leukemia
NCI-H522 lung = test system: NCI-H522 lung
NCI-H23 lung = test system: NCI-H23 lung
RXF 393 renal = test system: RXF 393 renal
786-0 renal = test system: 786-0 renal
SR leukemia = test system: SR leukemia
SNB-19 CNS = test system: SNB-19 CNS
MDA-MB-231 breast = test system: MDA-MB-231 breast
EKVX NSCLC = test system: EKVX NSCLC
A498 renal = test system: A498 renal
NCI/ADR-RES ovarian = test system: NCI/ADR-RES ovarian
SK-MEL-5 melanoma = test system: SK-MEL-5 melanoma
OVCAR-3 ovarian = test system: OVCAR-3 ovarian
K-562 leukemia = test system: K-562 leukemia
CAKI-1 renal = test system: CAKI-1 renal
M14 melanoma = test system: M14 melanoma
SK-MEL-2 melanoma = test system: SK-MEL-2 melanoma
UACC-62 melanoma = test system: UACC-62 melanoma
SF-295 CNS = test system: SF-295 CNS
KM12 colon = test system: KM12 colon
MALME-3M melanoma = test system: MALME-3M melanoma
MCF7 breast = test system: MCF7 breast
IGROV1 ovarian = test system: IGROV1 ovarian
TK-10 renal = test system: TK-10 renal
OVCAR-4 ovarian = test system: OVCAR-4 ovarian
RPMI-8226 leukemia = test system: RPMI-8226 leukemia
U251 CNS = test system: U251 CNS
OVCAR-8 ovarian = test system: OVCAR-8 ovarian
HL-60(TB) leukemia = test system: HL-60(TB) leukemia
SK-MEL-28 melanoma = test system: SK-MEL-28 melanoma
MDA-MB-435 = test system: MDA-MB-435
HOP-62 NSCLC = test system: HOP-62 NSCLC
HCT-15 colon = test system: HCT-15 colon
NCI-H460 lung = test system: NCI-H460 lung
UACC-257 melanoma = test system: UACC-257 melanoma
HCT-116 colon = test system: HCT-116 colon
HOP-92 NSCLC = test system: HOP-92 NSCLC
HT29 colon = test system: HT29 colon
SNB-75 CNS = test system: SNB-75 CNS
ACHN renal = test system: ACHN renal
OVCAR-5 ovarian = test system: OVCAR-5 ovarian
HS 578T breast = test system: HS 578T breast
SF-539 CNS = test system: SF-539 CNS
NCI-H226 lung = test system: NCI-H226 lung
SN12C renal = test system: SN12C renal
T-47D breast = test system: T-47D breast
SK-OV-3 ovarian = test system: SK-OV-3 ovarian
SF-268 CNS = test system: SF-268 CNS
LOX IMVI melanoma = test system: LOX IMVI melanoma
SW-620 colon = test system: SW-620 colon
BT-549 breast = test system: BT-549 breast
UO-31 renal = test system: UO-31 renal
COLO 205 colon = test system: COLO 205 colon
MOLT-4 leukemia = test system: MOLT-4 leukemia
A549 NSCLC = test system: A549 NSCLC
HCC-2998 colon = test system: HCC-2998 colon
DU-145 prostate = test system: DU-145 prostate
PC-3 prostate = test system: PC-3 prostate

C/C(=N\NC(=O)c1cccc(S(=O)(=O)N2CCN(C)CC2)c1)c1cc(Cl)ccc1O
GI50 (CCRF-CEM leukemia): 0.422 µM
TGI (CCRF-CEM leukemia): > 100 µM
GI50 (NCI-H522 lung): 1.26 µM
TGI (NCI-H522 lung): > 72.7 µM
GI50 (NCI-H23 lung): 0.74 µM
TGI (NCI-H23 lung): 45 µM
GI50 (RXF 393 renal): 2.8 µM
TGI (RXF 393 renal): 23.9 µM
GI50 (786-0 renal): 0.992 µM
TGI (786-0 renal): > 100 µM
GI50 (SR leukemia): 0.383 µM
TGI (SR leukemia): > 52.9 µM
GI50 (SNB-19 CNS): 2.03 µM
TGI (SNB-19 CNS): > 100 µM
GI50 (MDA-MB-231 breast): 0.667 µM
TGI (MDA-MB-231 breast): > 100 µM
GI50 (EKVX NSCLC): 0.354 µM
TGI (EKVX NSCLC): > 63.1 µM
GI50 (A498 renal): 40.6 µM
TGI (A498 renal): > 100 µM
GI50 (NCI/ADR-RES ovarian): 1.33 µM
TGI (NCI/ADR-RES ovarian): 14.9 µM
GI50 (SK-MEL-5 melanoma): 1.29 µM
TGI (SK-MEL-5 melanoma): 3.87 µM
GI50 (OVCAR-3 ovarian): 0.385 µM
TGI (OVCAR-3 ovarian): > 100 µM
GI50 (K-562 leukemia): 0.824 µM
TGI (K-562 leukemia): > 52.8 µM
GI50 (CAKI-1 renal): 0.567 µM
TGI (CAKI-1 renal): 27.5 µM
GI50 (M14 melanoma): 1.06 µM
TGI (M14 melanoma): 9.85 µM
GI50 (SK-MEL-2 melanoma): 3.46 µM
TGI (SK-MEL-2 melanoma): > 72.6 µM
GI50 (UACC-62 melanoma): 0.873 µM
TGI (UACC-62 melanoma): 6.4 µM
GI50 (SF-295 CNS): 0.998 µM
TGI (SF-295 CNS): 21.9 µM
GI50 (KM12 colon): 0.713 µM
TGI (KM12 colon): > 66.8 µM
GI50 (MALME-3M melanoma): 2.39 µM
TGI (MALME-3M melanoma): 36.6 µM
GI50 (MCF7 breast): 0.423 µM
TGI (MCF7 breast): > 100 µM
GI50 (IGROV1 ovarian): 0.677 µM
TGI (IGROV1 ovarian): > 66.5 µM
GI50 (TK-10 renal): 0.491 µM
TGI (TK-10 renal): > 88.6 µM
GI50 (OVCAR-4 ovarian): 0.545 µM
TGI (OVCAR-4 ovarian): > 100 µM
GI50 (RPMI-8226 leukemia): 1.33 µM
TGI (RPMI-8226 leukemia): > 100 µM
GI50 (U251 CNS): 0.414 µM
TGI (U251 CNS): > 100 µM
GI50 (OVCAR-8 ovarian): 0.494 µM
TGI (OVCAR-8 ovarian): > 100 µM
GI50 (HL-60(TB) leukemia): 0.717 µM
TGI (HL-60(TB) leukemia): 17.1 µM
GI50 (SK-MEL-28 melanoma): 1.36 µM
TGI (SK-MEL-28 melanoma): > 61.3 µM
GI50 (MDA-MB-435): 2.74 µM
TGI (MDA-MB-435): > 100 µM
GI50 (HOP-62 NSCLC): 0.461 µM
TGI (HOP-62 NSCLC): 37.3 µM
GI50 (HCT-15 colon): 0.27 µM
TGI (HCT-15 colon): > 43.6 µM
GI50 (NCI-H460 lung): 0.395 µM
TGI (NCI-H460 lung): > 32 µM
GI50 (UACC-257 melanoma): 2.37 µM
TGI (UACC-257 melanoma): 25.8 µM
GI50 (HCT-116 colon): 0.48 µM
TGI (HCT-116 colon): > 76.2 µM
GI50 (HOP-92 NSCLC): 4.85 µM
TGI (HOP-92 NSCLC): > 90.1 µM
GI50 (HT29 colon): 0.397 µM
TGI (HT29 colon): 20.1 µM
GI50 (SNB-75 CNS): 0.648 µM
TGI (SNB-75 CNS): 32.3 µM
GI50 (ACHN renal): 0.46 µM
TGI (ACHN renal): > 100 µM
GI50 (OVCAR-5 ovarian): 1.86 µM
TGI (OVCAR-5 ovarian): > 100 µM
GI50 (HS 578T breast): 4.54 µM
TGI (HS 578T breast): > 74.8 µM
GI50 (SF-539 CNS): 1.06 µM
TGI (SF-539 CNS): 21.8 µM
GI50 (NCI-H226 lung): 0.713 µM
TGI (NCI-H226 lung): 8.42 µM
GI50 (SN12C renal): 1.19 µM
TGI (SN12C renal): > 100 µM
GI50 (T-47D breast): 0.634 µM
TGI (T-47D breast): > 100 µM
GI50 (SK-OV-3 ovarian): 0.938 µM
TGI (SK-OV-3 ovarian): > 54.6 µM
GI50 (SF-268 CNS): 0.933 µM
TGI (SF-268 CNS): > 63.8 µM
GI50 (LOX IMVI melanoma): 0.518 µM
TGI (LOX IMVI melanoma): 13 µM
GI50 (SW-620 colon): 0.705 µM
TGI (SW-620 colon): > 94.9 µM
GI50 (BT-549 breast): 1.94 µM
TGI (BT-549 breast): 36 µM
GI50 (UO-31 renal): 0.184 µM
TGI (UO-31 renal): 12.6 µM
GI50 (COLO 205 colon): 0.387 µM
TGI (COLO 205 colon): 15.3 µM
GI50 (MOLT-4 leukemia): 0.47 µM
TGI (MOLT-4 leukemia): > 49.4 µM
GI50 (A549 NSCLC): 0.761 µM
TGI (A549 NSCLC): > 100 µM
GI50 (HCC-2998 colon): 0.571 µM
TGI (HCC-2998 colon): 28.7 µM
GI50 (DU-145 prostate): 1.15 µM
TGI (DU-145 prostate): > 100 µM
GI50 (PC-3 prostate): 1.18 µM
TGI (PC-3 prostate): > 100 µM
